The source made the active and inactive calls. No cut-off for these calls is given here.
Tests used:
NCI-H460 [1] = experiment: Antitumor activity against human NCI-H460 cells xenografted in athymic nude mouse assessed as change in tumor volume at 5 mg/kg, iv administered every 2 days and measured after 2 weeks; type: functional, organism-based
NCI-H460 [2] = experiment: Induction of DNA damage in human NCI-H460 cells assessed as increase in gammaH2AX positive cells by immunofluorescence analysis; type: functional, cell-based
NCI-H460 [3] = experiment: Anti-tumor activity against human NCI-H460 cells assessed as cell viability incubated for 48 hrs by CCK-8 assay; type: functional, cell-based; conditions: NCI-H460, 48 h
NCI-H460 [4] = experiment: Antitumor activity against human NCI-H460 cells xenografted in athymic nude mouse assessed as tumor growth inhibition at 10 mg/kg, iv administered every 2 days and measured after 2 weeks; type: functional; conditions: NCI-H460, 336 h, read-out: TGI
[5] = Toxicity in male athymic nude mouse assessed as spleen damage at 20 to 80 mg/kg, iv administered every 2 days and measured after 2 weeks; type: organism-based; conditions: in vivo, 336 h, dose 20-80 mg/kg
NCI-H460 [6] = experiment: Antitumor activity against human NCI-H460 cells xenografted in iv dosed athymic nude mouse assessed as tumor growth inhibition administered every 2 days and measured after 2 weeks; type: functional, organism-based; conditions: dose 5-20 mg/kg
NCI-H460 [7] = experiment: Inhibition of epithelial mesenchymal transition in human NCI-H460 cells assessed as increase in E-cadherin protein expression by Western blotting analysis; type: functional, cell-based
NCI-H460 [8] = experiment: Inhibition of colony formation in human NCI-H460 cells assessed as reduction in colony formation rate upto 12.5 uM incubated for 14 days by crystal violet staining based analysis; type: functional, cell-based; conditions: time 14.0 day
NCI-H460 [9] = experiment: Upregulation of gamma-H2AX expression in human NCI-H460 cells by Western blot analysis; type: functional, cell-based
NCI-H460 [10] = experiment: Effect on DDX10 level in human NCI-H460 cells by TPP analysis; type: functional, cell-based
NCI-H460 [11] = experiment: Induction of DNA damage in human NCI-H460 cells assessed as increase in gammaH2AX positive cells by DAPI staining based confocal laser scanning microscopic analysis; type: functional, cell-based
NCI-H460 [12] = experiment: Induction of apoptosis in human NCI-H460 cells assessed as downregulation of Bcl2 expression at 500 nM incubated for 24 hrs by Western blot analysis; type: functional, cell-based
[13] = Toxicity in iv dosed BALB/c mouse assessed as maximum tolerated dose administered every 2 days and measured after 2 weeks; type: organism-based; conditions: in vivo
NCI-H460 [14] = experiment: Anti-tumor activity against DDX10 knockdown human NCI-H460 cells assessed as inhibition of cell viability; type: functional, cell-based
[15] = Hemolytic activity in BALB/c mouse Red blood cells assessed as effect on morphological structure at 10 to 100 uM incubated for 2 hrs; type: toxicity, cell-based; conditions: erythrocyte, dose 10-100 µM
NCI-H460 [16] = experiment: Inhibition of epithelial mesenchymal transition in human NCI-H460 cells assessed as decrease in N-cadherin protein expression by Western blotting analysis; type: functional, cell-based
NCI-H460 [17] = experiment: Antitumor activity against human NCI-H460 cells xenografted in athymic nude mouse assessed as increase in gamma-H2AX level in tumor at 5 mg/kg, iv administered every 2 days and measured after 2 weeks by immunofluorescence assay; type: functional, organism-based
[18] = Toxicity in male athymic nude mouse assessed as morphological changes in kidney at 5 to 20 mg/kg, iv administered every 2 days and measured after 2 weeks by H and E staining based analysis; type: organism-based; conditions: in vivo, 336 h, dose 5-20 mg/kg
NCI-H460 [19] = experiment: Antitumor activity against human NCI-H460 cells xenografted in athymic nude mouse assessed as increase in gamma-H2AX level in tumor at 20 mg/kg, iv administered every 2 days and measured after 2 weeks by Western blot assay; type: functional, organism-based
NCI-H460 [20] = experiment: Induction of apoptosis in human NCI-H460 cells assessed as increase in caspase-3 level at 500 nM incubated for 24 hrs by Western blot analysis; type: functional, cell-based
[21] = Toxicity in male athymic nude mouse assessed as kidney damage at 20 to 80 mg/kg, iv administered every 2 days and measured after 2 weeks; type: organism-based; conditions: in vivo, 336 h, dose 20-80 mg/kg
NCI-H460 [22] = experiment: Antitumor activity against human NCI-H460 cells xenografted in athymic nude mouse assessed as change in tumor weight at 5 mg/kg, iv administered every 2 days and measured after 2 weeks; type: functional, organism-based
[23] = Toxicity in male athymic nude mouse assessed as liver metastasis at 5 to 20 mg/kg, iv administered every 2 days and measured after 2 weeks by H and E staining based analysis; type: organism-based; conditions: in vivo, 336 h, dose 5-20 mg/kg
[24] = Toxicity in male athymic nude mouse assessed as morphological changes in lung at 5 to 20 mg/kg, iv administered every 2 days and measured after 2 weeks by H and E staining based analysis; type: organism-based; conditions: in vivo, 336 h, dose 5-20 mg/kg
[25] = Toxicity in male athymic nude mouse assessed as morphological changes in liver at 5 to 20 mg/kg, iv administered every 2 days and measured after 2 weeks by H and E staining based analysis; type: organism-based; conditions: in vivo, 336 h, dose 5-20 mg/kg
NCI-H460 [26] = experiment: Induction of apoptosis in human NCI-H460 cells assessed as increase in BAX level at 500 nM incubated for 24 hrs by Western blot analysis; type: functional, cell-based
[27] = Toxicity in male athymic nude mouse assessed as lung damage at 20 to 80 mg/kg, iv administered every 2 days and measured after 2 weeks; type: organism-based; conditions: in vivo, 336 h, dose 20-80 mg/kg
NCI-H460 [28] = experiment: Downregulation of DDX10 expression in human NCI-H460 cells; type: functional, cell-based
[29] = target: Probable ATP-dependent RNA helicase DDX10 (Homo sapiens) (UniProt Q13206); experiment: Binding affinity to DDX10 human NCI-H460 cells incubated for 60 mins at 37 to 67 degreeC by CETSA assay; type: cell-based
Chain of Probable ATP-dependent RNA helicase DDX10 (Homo sapiens) (Q13206 whole entry): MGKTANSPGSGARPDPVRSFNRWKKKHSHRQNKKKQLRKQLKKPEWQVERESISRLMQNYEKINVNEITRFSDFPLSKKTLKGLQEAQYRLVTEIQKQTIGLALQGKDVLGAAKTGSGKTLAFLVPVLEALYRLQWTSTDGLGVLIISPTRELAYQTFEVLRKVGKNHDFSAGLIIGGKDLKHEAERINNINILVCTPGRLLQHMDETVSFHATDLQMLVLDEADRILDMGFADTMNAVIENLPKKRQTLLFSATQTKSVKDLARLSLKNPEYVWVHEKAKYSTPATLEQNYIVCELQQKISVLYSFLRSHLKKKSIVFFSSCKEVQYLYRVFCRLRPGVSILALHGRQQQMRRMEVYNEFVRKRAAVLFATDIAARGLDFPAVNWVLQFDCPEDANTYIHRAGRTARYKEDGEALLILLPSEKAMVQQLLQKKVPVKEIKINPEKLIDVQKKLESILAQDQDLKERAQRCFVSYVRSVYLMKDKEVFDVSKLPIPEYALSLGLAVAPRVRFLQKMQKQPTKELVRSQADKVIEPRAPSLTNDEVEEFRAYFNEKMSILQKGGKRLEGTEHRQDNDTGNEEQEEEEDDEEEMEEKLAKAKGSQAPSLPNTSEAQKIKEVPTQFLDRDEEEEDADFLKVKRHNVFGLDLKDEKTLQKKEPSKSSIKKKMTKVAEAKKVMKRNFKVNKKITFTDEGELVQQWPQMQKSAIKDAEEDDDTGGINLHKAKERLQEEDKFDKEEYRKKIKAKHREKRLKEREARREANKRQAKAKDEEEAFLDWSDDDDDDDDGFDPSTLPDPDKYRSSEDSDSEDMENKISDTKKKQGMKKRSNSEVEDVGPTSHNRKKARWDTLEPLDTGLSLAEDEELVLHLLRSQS

NCI-H460 [30] = experiment: Anti-migratory activity against human NCI-H460 cells assessed as inhibition of cell migration at 500 nM measured for 48 hrs by wound healing assay; type: functional, cell-based
NCI-H460 [31] = experiment: Antitumor activity against human NCI-H460 cells xenografted in athymic nude mouse assessed as increase in gamma-H2AX level in tumor at 20 mg/kg, iv administered every 2 days and measured after 2 weeks by immunofluorescence assay; type: functional, organism-based
NCI-H460 [32] = experiment: Antitumor activity against human NCI-H460 cells xenografted in athymic nude mouse assessed as tumor growth inhibition at 20 mg/kg, iv administered every 2 days and measured after 2 weeks; type: functional; conditions: NCI-H460, 336 h, read-out: TGI
NCI-H460 [33] = experiment: Inhibition of cell invasion in human NCI-H460 cells assessed as decrease in number of invading cells at 500 nM incubated for 48 hrs by transwell assay; type: functional, cell-based
NCI-H460 [34] = experiment: Induction of apoptosis in human NCI-H460 cells assessed as apoptosis rate at 500 nM incubated for 24 hrs by annexin V-FITC/PI staining based flow cytometry analysis relative to control; type: functional
[35] = Toxicity in male athymic nude mouse assessed as liver damage at 20 to 80 mg/kg, iv administered every 2 days and measured after 2 weeks; type: organism-based; conditions: in vivo, 336 h, dose 20-80 mg/kg
[36] = Toxicity in male athymic nude mouse assessed as change in body weight at 20 to 80 mg/kg, iv administered every 2 days and measured after 2 weeks; type: organism-based; conditions: in vivo, 336 h, dose 20-80 mg/kg
HT-29 = experiment: Anti-tumor activity against human HT-29 cells assessed as cell viability incubated for 48 hrs by CCK-8 assay; type: functional, cell-based
MCF7 = experiment: Anti-tumor activity against human MCF7 cells assessed as cell viability incubated for 48 hrs by CCK-8 assay; type: functional, cell-based
[37] = Toxicity in male athymic nude mouse assessed as tumor necrosis at 5 to 20 mg/kg, iv administered every 2 days and measured after 2 weeks by H and E staining based analysis; type: organism-based; conditions: in vivo, 336 h, dose 5-20 mg/kg
[38] = Toxicity in male athymic nude mouse assessed as heart damage at 20 to 80 mg/kg, iv administered every 2 days and measured after 2 weeks; type: organism-based; conditions: in vivo, 336 h, dose 20-80 mg/kg
NCI-H460 [39] = experiment: Antitumor activity against human NCI-H460 cells xenografted in athymic nude mouse assessed as tumor growth inhibition at 5 mg/kg, iv administered every 2 days and measured after 2 weeks; type: functional; conditions: NCI-H460, 336 h, read-out: TGI
HeLa = experiment: Anti-tumor activity against human HeLa cells assessed as cell viability incubated for 48 hrs by CCK-8 assay; type: functional, cell-based
[40] = Toxicity in male athymic nude mouse assessed as lung metastasis at 5 to 20 mg/kg, iv administered every 2 days and measured after 2 weeks by H and E staining based analysis; type: organism-based; conditions: in vivo, 336 h, dose 5-20 mg/kg
NCI-H460 [41] = experiment: Antitumor activity against human NCI-H460 cells xenografted in athymic nude mouse assessed as change in tumor weight at 10 to 20 mg/kg, iv administered every 2 days and measured after 2 weeks; type: functional, organism-based; conditions: dose 10-20 mg/kg
[42] = Hemolytic activity in BALB/c mouse Red blood cells assessed as hemolysis at 10 to 100 uM incubated for 2 hrs; type: toxicity, cell-based, Erythrocyte; conditions: dose 10-100 µM, read-out: Activity
[43] = Toxicity in male athymic nude mouse assessed as change in body weight at 5 to 20 mg/kg, iv administered every 2 days and measured after 2 weeks; type: organism-based; conditions: in vivo, 336 h, dose 5-20 mg/kg
[44] = Toxicity in male athymic nude mouse assessed as morphological changes in heart at 5 to 20 mg/kg, iv administered every 2 days and measured after 2 weeks by H and E staining based analysis; type: organism-based; conditions: in vivo, 336 h, dose 5-20 mg/kg
[45] = Toxicity in male athymic nude mouse assessed as morphological changes in spleen at 5 to 20 mg/kg, iv administered every 2 days and measured after 2 weeks by H and E staining based analysis; type: organism-based; conditions: in vivo, 336 h, dose 5-20 mg/kg

COc1ccc([Se]c2c(-c3ccccc3)ncc3cccnc23)cc1
Activity (NCI-H460 [1]): Active | Activity (NCI-H460 [2]): Active | IC50 (NCI-H460 [3]): 1.59 µM | inhibition in vivo at 10 mg/kg (NCI-H460 [4]): 78% | Activity [5]: Non-toxic | TGI (NCI-H460 [6]): Dose-dependent-effect | inhibition (NCI-H460 [7]): Active | inhibition (NCI-H460 [8]): Active | Activity (NCI-H460 [9]): Active | Activity (NCI-H460 [10]): Active | Activity (NCI-H460 [11]): Active | Activity (NCI-H460 [12]): Active | MTD at 336 h [13]: 160 mg/kg | Activity (NCI-H460 [14]): Active | Activity [15]: Non-toxic | N-cadherin expression decrease (qualitative activity) (NCI-H460 [16]): Active | Activity (NCI-H460 [17]): Active | Activity [18]: Non-toxic | Activity (NCI-H460 [19]): Active | Activity (NCI-H460 [20]): Active | Activity [21]: Non-toxic | Activity (NCI-H460 [22]): Active | Activity [23]: Non-toxic | Activity [24]: Non-toxic | Activity [25]: Non-toxic | Activity (NCI-H460 [26]): Active | Activity [27]: Non-toxic | Activity (NCI-H460 [28]): Active | Activity [29]: Active | Activity (NCI-H460 [30]): Active | Activity (NCI-H460 [31]): Active | inhibition in vivo at 20 mg/kg (NCI-H460 [32]): 88% | inhibition (NCI-H460 [33]): Active | Activity (NCI-H460 [34]): 42.6% | Activity [35]: Non-toxic | Activity [36]: Non-toxic | Activity (HT-29): inactive | Activity (MCF7): inactive | Activity [37]: Non-toxic | Activity [38]: Non-toxic | inhibition in vivo at 5 mg/kg (NCI-H460 [39]): 60% | Activity (HeLa): inactive | Activity [40]: Non-toxic | Activity (NCI-H460 [41]): inactive | hemolysis at 2 h, 100 µM [42]: < 1% | Activity [43]: Non-toxic | Activity [44]: Non-toxic | Activity [45]: Non-toxic

— ChEMBL document CHEMBL6103645, “Modular Synthesis of Bioactive Selenoheterocycles for Efficient Cancer Therapy via Electrochemical Selenylation/Cyclization” (J Med Chem, 2025)
